Converted amounts (≈) assume the structure as drawn.
Experiments:
[1] = Solubilization of choline and sodium salts of FTS and other acidic drugs by cyclodextrins
Experimental: The solid obtained thereby was heated on a boiling water bath.
In this procedure, FTS (10 mg, 28 micromoles) was dissolved with warming in ethanol (20 microliters) and an aqueous solution of sodium hydroxide (30 microliters of 1 M NaOH carbonate free, i.e., 30 micromoles) was added. […] This clear solution then was added to the solution of Pitha methyl derivative (100 mg) in isotonic phosphate buffered saline (1 ml, pH 7.4).
In these investigations, choline salts were prepared by extraction with organic solvents of mixtures of sodium salts of the anion in question and choline chloride. There mixtures were either solid or in aqueous solutions.

[2] = Solubilization of additional guests by two different hosts; assay type: physicochemical; conditions: for solubility at 1 week: water containing solubilising hosts, aqueous with cosolvent or surfactant or cyclodextrin, thermodynamic from solid
Source text: Techniques were as described in Example 1 and water was used as a solvent. As shown in Table for Example 4, complexes of two hosts increased the solubility of retinoic acid and taxol compared to the solubility obtained with individual hosts.

[3] = physchem
Source text: A slight excess of FTS was equilibrated with water containing one host at 5% concentration or two hosts, each at 5% concentration, by rotation for a week. The suspension was then filtered through a millipore filter and the concentration of FTS in filtrate determined by ultraviolet spectrophotometry. […] The cooperativity index reflects the improvement in solubility obtained with each combination of two hosts over the solubility obtained with each of the individual hosts involved in the two-host system. It is computed by dividing the obtained solubility with two hosts by the sum of the individual solubilities obtained with each component.

[4] = Solubilization of FTS by TRIMEA and DIMEB: continuous variation and concentration dependence; assay type: physicochemical
[5] = as above; assay type: physicochemical; conditions: water
Source text: The optimum ratio of hosts was established by the continuous variation method, using techniques of Example 1 and water as a solvent. The results in Table A for Example 3 indicate that the optimum solubility is obtained when both hosts are in about equal concentrations. […]

[6] = Solubilization of FTS by two different hosts in water (equilibration for a week, filtration, UV spectrophotometry); assay type: physicochemical; conditions: for solubility at 1 week: aqueous host solution, aqueous with cosolvent or surfactant or cyclodextrin, thermodynamic from solid
Experimental: (§1) no enhancement with two hosts. Water was used as the solvent for all data in the Table for Example 1. When a sodium carbonate based buffer of pH 10 was used as a solvent (conditions in which FTS is converted to its salt), the solubility of FTS in TRIMEA combined with DIMEB or in TRIMEA combined with Pitha methyl derivatives exceeds 60 mg per ml. Cooperativity, in this case, could not be calculated since, in these conditions, even solubilization by one component alone (DIMEB or Pitha methyl derivative) was over 60 mg per ml.

[7] = Solubilization of FTS by hosts in sodium carbonate based buffer of pH 10; assay type: physicochemical
Experimental: as §1

[8] = host combination DIMEB - TRIMEB (first line, r7), water
[9] = host combination DIMEB - TRIMEB (printed a second time, r8), water
[10] = host combination TRIMEA - DIMEB, water
[11] = host combination TRIMEA - Pitha Methyl 258, water
[12] = host combination TRIMEA - RAMEB, water
[13] = host combination TRIMEA - TRIMEB, water
[14] = hosts Alpha Cyclodextrin - DIMEB, each 5% in water
[15] = hosts Alpha Cyclodextrin - TRIMEB, each 5% in water
[16] = hosts Beta Cyclodextrin - TRIMEB, each 5% in water
[17] = hosts DIMEB - PERM HPBCD, each 5% in water
[18] = hosts DIMEB - TRIMEB, each 5% in water
[19] = hosts DIMEB - TRIMEG, each 5% in water
[20] = hosts G2 - DIMEB, each 5% in water
[21] = hosts G2 - TRIMEB, each 5% in water
[22] = hosts G2 - TRIMEG, each 5% in water
[23] = hosts HPACD - HPBCD, each 5% in water
[24] = hosts Pitha Methyl 258 - TRIMEB, each 5% in water
[25] = hosts Pitha Methyl 322 - DIMEB, each 5% in water
[26] = hosts TRIMEA - DIMEB, each 5% in water
[27] = hosts TRIMEA - G2, each 5% in water
[28] = hosts TRIMEA - Pitha Methyl 258, each 5% in water

## Cc1ccc(C(=O)Nc2ccc(S(=O)(=O)O)c3cc(S(=O)(=O)O)cc(S(=O)(=O)O)c23)cc1NC(=O)c1cccc(NC(=O)Nc2cccc(C(=O)Nc3cc(C(=O)Nc4ccc(S(=O)(=O)O)c5cc(S(=O)(=O)O)cc(S(=O)(=O)O)c45)ccc3C)c2)c1 [suramin]
[1]
  solubilization of choline salts: easily solubilized

## COc1ccc2c(c1)c(CC(=O)O)c(C)n2C(=O)c1ccc(Cl)cc1 [indomethacin]
[1]
  solubilization of choline salts: easily solubilized

## C[C@@H]1[C@H](O)[C@@H](C)/C=C/C=C/C=C/C=C/C=C/C=C/C=C/[C@H](O[C@@H]2O[C@H](C)[C@@H](O)[C@H](N)[C@@H]2O)C[C@@H]2O[C@](O)(C[C@@H](O)C[C@@H](O)[C@H](O)CC[C@@H](O)C[C@@H](O)CC(=O)O[C@H]1C)C[C@H](O)[C@H]2C(=O)O [Amphotericin B]
[1]
  solubilization of choline salts: easily solubilized
[2]; [8]
  Cooperativity: 0.7
  Solubility: 131 µg/mL
[2]; [9]
  Cooperativity: 0.9
  Solubility: 158 µg/mL
[2]; [10]
  Cooperativity: 0.9
  Solubility: 185 µg/mL

## CC(=O)O[C@H]1C(=O)[C@@]2(C)[C@H]([C@H](OC(=O)c3ccccc3)[C@]3(O)C[C@H](OC(=O)[C@H](O)[C@@H](NC(=O)c4ccccc4)c4ccccc4)C(C)=C1C3(C)C)[C@]1(OC(C)=O)CO[C@@H]1C[C@@H]2O [Taxol]
[2]; [10]
  Cooperativity: 1.49
  solubility at 1 week: 1000 µg/mL
[3]; 1 week
  Solubility: 380 µg/mL
[3]; aqueous with cosolvent or surfactant or cyclodextrin, thermodynamic from solid, Solubility
  solubility at 1 week: 290 µg/mL

## CC1=C(/C=C/C(C)=C/C=C/C(C)=C/C(=O)O)C(C)(C)CCC1 [Retinoic Acid]
[2]; [10]
  Cooperativity: 1.45
  solubility at 1 week: 71 µg/mL
[2]; [11]
  Cooperativity: 1.13
  solubility at 1 week: 52 µg/mL
[2]; [12]
  Cooperativity: 1.08
  solubility at 1 week: 56 µg/mL
[2]; [13]
  Cooperativity: 0.7
  solubility at 1 week: 12 µg/mL
[3]; 1 week
  single, highly methylated cyclodextrin host outperformed the current standard: 2.5 times

## Nc1ccc(S(=O)(=O)Nc2ncccn2)cc1 [sulfadiazine]
[1]
  solubilization of choline salts: easily solubilized

## CC(C)=CCC/C(C)=C/CC/C(C)=C/CSc1ccccc1C(=O)[O-].C[N+](C)(C)CCO [choline salt of FTS]
[1]; cyclodextrin-solubilized salts
  precipitate formation upon acidification: less prone to form precipitate upon acidification than sodium salts
[1]; powder of choline salt of FTS with methylated beta-cyclodextrin dissolved in water, paper strip indicator
  pH of solution: 6.5
[1]; solid powder of choline salt of FTS with methylated beta-cyclodextrin
  dissolution of the powder in water: dissolved easily and fully in water

## CN1C(C(=O)Nc2ccccn2)=C(O)c2ccccc2S1(=O)=O [piroxicam]
[1]
  solubilization of choline salts: easily solubilized

## O=C(O)c1ccccc1O [salicylic acid]
[1]
  solubilization of choline salts: easily solubilized

## CC(C)Cc1ccc(C(C)C(=O)O)cc1 (stereo not shown) [ibuprofen]
[1]
  solubilization of choline salts: easily solubilized

## CC(C)=CCCC(C)=CCCC(C)=CCSc1ccccc1C(=O)O [FTS, S-farnesylthiosalicylic acid]
[4]; TRIMEA 2 % w/w, DIMEB 2 % w/w
  FTS: 2.13 mg/mL
[4]; TRIMEA 5 % w/w, DIMEB 5 % w/w
  FTS: 8.53 mg/mL
[4]; TRIMEA 10 % w/w, DIMEB 10 % w/w
  FTS: 15.86 mg/mL
[4]; TRIMEA 15 % w/w, DIMEB 15 % w/w
  FTS (mg/ml): (>than 17.17, all dissolved) mg/ml
[5]; TRIMEA 0 % w/w, DIMEB 5 % w/w
  FTS: 1.55 mg/mL
[5]; TRIMEA 1 % w/w, DIMEB 4 % w/w
  FTS: 2.29 mg/mL
[5]; TRIMEA 2 % w/w, DIMEB 3 % w/w
  FTS: 2.66 mg/mL
[5]; TRIMEA 3 % w/w, DIMEB 2 % w/w
  FTS: 2.79 mg/mL
[5]; TRIMEA 4 % w/w, DIMEB 1 % w/w
  FTS: 2.33 mg/mL
[5]; TRIMEA 5 % w/w, DIMEB 0 % w/w
  FTS: 0.19 mg/mL
[6]; [14]
  solubility at 1 week: 1400 µg/mL (≈ 3.9 mM)
  Cooperativity (observed ÷ Σ components): 1.0
[6]; [15]
  solubility at 1 week: 100 µg/mL (≈ 0.279 mM)
  Cooperativity (observed ÷ Σ components): 0.6
[6]; [16]
  solubility at 1 week: 26 µg/mL (≈ 0.0725 mM)
  Cooperativity (observed ÷ Σ components): 0.2
[6]; [17]
  solubility at 1 week: 1100 µg/mL (≈ 3.07 mM)
  Cooperativity (observed ÷ Σ components): 0.8
[6]; [18]
  solubility at 1 week: 2600 µg/mL (≈ 7.25 mM)
  Cooperativity (observed ÷ Σ components): 1.8
[6]; [19]
  solubility at 1 week: 1400 µg/mL (≈ 3.9 mM)
  Cooperativity (observed ÷ Σ components): 1.0
[6]; [20]
  solubility at 1 week: 2400 µg/mL (≈ 6.69 mM)
  Cooperativity (observed ÷ Σ components): 1.0
[6]; [21]
  solubility at 1 week: 1100 µg/mL (≈ 3.07 mM)
  Cooperativity (observed ÷ Σ components): 1.0
[6]; [22]
  solubility at 1 week: 1000 µg/mL (≈ 2.79 mM)
  Cooperativity (observed ÷ Σ components): 1.0
[6]; [23]
  solubility at 1 week: 52 µg/mL (≈ 0.145 mM)
  Cooperativity (observed ÷ Σ components): 0.3
[6]; [24]
  solubility at 1 week: 950 µg/mL (≈ 2.65 mM)
  Cooperativity (observed ÷ Σ components): 1.4
[6]; [25]
  solubility at 1 week: 1300 µg/mL (≈ 3.63 mM)
  Cooperativity (observed ÷ Σ components): 0.7
[6]; [26]
  solubility at 1 week: 6600 µg/mL (≈ 18.4 mM)
  Cooperativity (observed ÷ Σ components): 4.1
[6]; [27]
  solubility at 1 week: 3900 µg/mL (≈ 10.9 mM)
  Cooperativity (observed ÷ Σ components): 3.0
[6]; [28]
  solubility at 1 week: 5700 µg/mL (≈ 15.9 mM)
  Cooperativity (observed ÷ Σ components): 9.4
[1]
  solubilization of choline salts: easily solubilized
[7]; TRIMEA combined with DIMEB, sodium carbonate based buffer of pH 10 (FTS converted to its salt)
  solubility of FTS: exceeds 60 mg per ml
[7]; TRIMEA combined with Pitha methyl derivatives, sodium carbonate based buffer of pH 10
  solubility of FTS: exceeds 60 mg per ml
[3]; 1 week
  single, highly methylated cyclodextrin host outperformed the current standard: over 2 times

Reference: patent publication US6576261B1, “Potentiation of inclusion complex formation of cyclodextrin derivatives” (priority 1999, dated 2003)
